The supplement of paper PMC11061612

Experiments:
Assay in all cases: Bliss excess, mean over the matrix (fraction); higher = more synergy
[1] = system: 8505C (Thyroid Gland Carcinoma)
Procedure, shortened: (§1)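 Bliss excess equals the observed combination effect minus the expected value EA + EB − EA·EB, where EA and EB are the effects of each agent alone. Combination Emax is the second-highest inhibition within the matrix. Inhibition was scaled from CellTiter-Glo 2.0 luminescence, with 0 set by vehicle wells and 1 by blank wells, after 72 hours of two-drug dosing of cells plated in 1536-well plates.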

[2] = system: DAN-G (Pancreatic Carcinoma)
Procedure, shortened: as §1

[3] = system: DMS-114 (Small Cell Lung Carcinoma)
Procedure, shortened: as §1

[4] = system: HCC1187 (Breast Carcinoma)
Procedure, shortened: as §1

[5] = system: HCC1419 (Breast Carcinoma)
Procedure, shortened: as §1

[6] = system: KMS-12-BM (Plasma Cell Myeloma)
Procedure, shortened: as §1

[7] = system: KP-3 (Pancreatic Carcinoma)
Procedure, shortened: as §1

[8] = system: KY821 (Acute Myeloid Leukemia)
Procedure, shortened: as §1

[9] = system: MOG-G-CCM (Low Grade Glioma)
Procedure, shortened: as §1

[10] = system: MOLM-13 (Acute Myeloid Leukemia)
Procedure, shortened: as §1

[11] = system: NCCIT (Other Solid Carcinomas)
Procedure, shortened: as §1

[12] = system: NCI-H3122 (Lung Adenocarcinoma)
Procedure, shortened: as §1

[13] = system: NCI-H520 (Squamous Cell Lung Carcinoma)
Procedure, shortened: as §1

[14] = system: NCI-H661 (Non-Small Cell Lung Carcinoma)
Procedure, shortened: as §1

[15] = system: NCI-H929 (Plasma Cell Myeloma)
Procedure, shortened: as §1

RD (Rhabdomyosarcoma) = system: RD (Rhabdomyosarcoma)
Procedure, shortened: as §1

[16] = system: RPMI-8226 (Plasma Cell Myeloma)
Procedure, shortened: as §1

SJSA-1 (Osteosarcoma) = system: SJSA-1 (Osteosarcoma)
Procedure, shortened: as §1

[17] = system: SNU-398 (Hepatocellular Carcinoma)
Procedure, shortened: as §1

[18] = system: ST486 (Burkitt's Lymphoma)
Procedure, shortened: as §1

SMILES	Bliss excess [1]	Bliss excess [2]	Bliss excess [3]	Bliss excess [4]	Bliss excess [5]	Bliss excess [6]	Bliss excess [7]	Bliss excess [8]	Bliss excess [9]	Bliss excess [10]	Bliss excess [11]	Bliss excess [12]	Bliss excess [13]	Bliss excess [14]	Bliss excess [15]	Bliss excess (RD (Rhabdomyosarcoma))	Bliss excess [16]	Bliss excess (SJSA-1 (Osteosarcoma))	Bliss excess [17]	Bliss excess [18]
Cc1cc2ncnn2cc1Nc1ncc2c(n1)n(C1CCOCC1)c(=O)n2C [AZD7648] + C=CCn1c(=O)c2cnc(Nc3ccc(N4CCN(C)CC4)cc3)nc2n1-c1cccc(C(C)(C)O)n1 [AZD1775] (first compound max 10 µM, partner max 1 µM)	-0.0235	-0.0686	-0.0151	0.0302	-0.0156	0.0085	0.0283	-0.0098	-0.0309	-0.0255	0.0237	-0.0402	0.004	-0.0135	-0.0572	-0.0168	0.0062	-0.024	0.0128	-0.0316
CC1(C)CCC(CN2CCN(c3ccc(C(=O)NS(=O)(=O)c4ccc(NCC5CCOCC5)c([N+](=O)[O-])c4)c(Oc4cnc5[nH]ccc5c4)c3)CC2)=C(c2ccc(Cl)cc2)C1 [Venetoclax] + Cn1cnc2c(F)c(Nc3ccc(Br)cc3Cl)c(C(=O)NOCCO)cc21 [Selumetinib] (first compound max 1 µM, 7x7, partner max 3 µM)	-0.0184	-0.0459	-0.0371	-0.0161	-0.0413	-0.0118	-0.042	0.0329	-0.0697	0.0783	-0.0252	-0.0309	-0.0351	-0.0243	0.027	-0.0425	0.0187	-0.0431	-0.0003	-0.141
CN(CCO)CC[C@H](CSc1ccccc1)Nc1ccc(S(=O)(=O)NC(=O)c2ccc(N3CCC([C@@H](O)c4ccccc4-c4ccc(Cl)cc4)CC3)cc2)cc1S(=O)(=O)C(F)(F)F [AZD4320] + CCN(CCO)CCCOc1ccc2c(Nc3cc(CC(=O)Nc4cccc(F)c4)[nH]n3)ncnc2c1 [AZD2811] (first compound max 1 µM, 7x7, partner max 1 µM)	0.0545	0.0038	-0.0398	-0.0032	-0.0664	0.0816	-0.0476	0.162	0.0683	0.0171	0.0034	-0.0456	0.0077	-0.0322	-0.0119	0.0335	0.0003	-0.0059	-0.0135	-0.0097
CN(CCO)CC[C@H](CSc1ccccc1)Nc1ccc(S(=O)(=O)NC(=O)c2ccc(N3CCC([C@@H](O)c4ccccc4-c4ccc(Cl)cc4)CC3)cc2)cc1S(=O)(=O)C(F)(F)F [AZD4320] + C[C@@H]1COCCN1C2=NC(=NC(=C2)C3(CC3)[S@](=N)(=O)C)C4=C5C=CNC5=NC=C4 [AZD6738] (first compound max 1 µM, 7x7, partner max 10 µM)	-0.0298	-0.0315	0.0073	-0.0209	-0.0752	0.0012	-0.042	-0.0241	-0.0311	0.0272	-0.0331	-0.0965	-0.0547	-0.0197	-0.0097	-0.0334	0.0338	-0.113	-0.0452	-0.0502
COc1nnc2ccc(N3CCC(c4ccc(OCCN5CCN(C)C(=O)[C@H]5C)cc4)CC3)nn12 [AZD5153] + C[C@@H]1COCCN1C2=NC(=NC(=C2)C3(CC3)[S@](=N)(=O)C)C4=C5C=CNC5=NC=C4 [AZD6738] (first compound max 1 µM, 7x7, partner max 10 µM)	0.0751	0.0374	0.0184	0.0265	-0.0517	-0.0167	0.0527	-0.0196	-0.0378	-0.0068	-0.0702	-0.0382	0.07	0.0929	-0.0817	0	-0.0505	-0.0398	0.0758	-0.0692
COc1nnc2ccc(N3CCC(c4ccc(OCCN5CCN(C)C(=O)[C@H]5C)cc4)CC3)nn12 [AZD5153] + Cn1cnc2c(F)c(Nc3ccc(Br)cc3Cl)c(C(=O)NOCCO)cc21 [Selumetinib] (first compound max 1 µM, 7x7, partner max 10 µM)	0.0049	-0.0368	0.0443	-0.0067	0.0238	-0.0114	-0.0122	0.0027	-0.0198	0.0238	-0.0845	-0.0818	0.0319	-0.0027	-0.0068	0.0333	0.0745	-0.0377	-0.0298	0.031
CN(C)CCCOc1ccc(-c2ccc3ncc4c(c3c2)n(C2CCOCC2)c(=O)n4C)cn1 [AZD0156] + C[C@@H]1COCCN1C2=NC(=NC(=C2)C3(CC3)[S@](=N)(=O)C)C4=C5C=CNC5=NC=C4 [AZD6738] (first compound max 1 µM, 7x7, partner max 10 µM)	0.0051	0.0425	-0.0138	0.0161	-0.0295	0.117	-0.0325	0.0228	-0.0593	-0.0334	-0.0174	0.0218	-0.0064	0.0059	-0.0182	-0.0333	0.102	-0.0266	-0.0039	0.0016
CN(CCO)CC[C@H](CSc1ccccc1)Nc1ccc(S(=O)(=O)NC(=O)c2ccc(N3CCC([C@@H](O)c4ccccc4-c4ccc(Cl)cc4)CC3)cc2)cc1S(=O)(=O)C(F)(F)F [AZD4320] + Cc1cc2ncnn2cc1Nc1ncc2c(n1)n(C1CCOCC1)c(=O)n2C [AZD7648] (first compound max 1 µM, 7x7, partner max 10 µM)	-0.0315	-0.0484	-0.0514	-0.025	-0.133	0.0317	-0.0471	0.0393	-0.0387	0.0157	-0.059	-0.0676	-0.0691	-0.0289	0.0134	-0.0189	0.0536	-0.0406	-0.0291	-0.0066
CC1(C)CCC(CN2CCN(c3ccc(C(=O)NS(=O)(=O)c4ccc(NCC5CCOCC5)c([N+](=O)[O-])c4)c(Oc4cnc5[nH]ccc5c4)c3)CC2)=C(c2ccc(Cl)cc2)C1 [Venetoclax] + C[C@@H]1COCCN1C2=NC(=NC(=C2)C3(CC3)[S@](=N)(=O)C)C4=C5C=CNC5=NC=C4 [AZD6738] (first compound max 1 µM, 7x7, partner max 10 µM)	-0.0219	-0.0536	-0.0338	-0.0095	-0.0479	-0.012	-0.0227	-0.0336	-0.045	0.0068	-0.0355	-0.0649	-0.0733	-0.0698	-0.0567	0.002	0.0142	-0.0447	-0.0662	-0.0369
Cc1c2c(nn1C)CSCc1cc(n(C)n1)CSc1cc(c3ccccc3c1)OCCCc1c(C(=O)O)n(C)c3c-2c(Cl)ccc13 [AZD5991] + Cc1cc2ncnn2cc1Nc1ncc2c(n1)n(C1CCOCC1)c(=O)n2C [AZD7648] (first compound max 1 µM, 7x7, partner max 10 µM)	-0.0125	-0.0402	0.0346	-0.0299	-0.0196	-0.0033	-0.0462	-0.0302	-0.0394	-0.0165	-0.0494	-0.0563	-0.0453	-0.0546	0.0091	-0.049	-0.0436	0.0585	-0.0125	-0.053
CC1(C)CCC(CN2CCN(c3ccc(C(=O)NS(=O)(=O)c4ccc(NCC5CCOCC5)c([N+](=O)[O-])c4)c(Oc4cnc5[nH]ccc5c4)c3)CC2)=C(c2ccc(Cl)cc2)C1 [Venetoclax] + CCN(CCO)CCCOc1ccc2c(Nc3cc(CC(=O)Nc4cccc(F)c4)[nH]n3)ncnc2c1 [AZD2811] (first compound max 1 µM, 7x7, partner max 1 µM)	-0.0133	-0.0106	-0.0334	-0.0165	-0.0448	0.0773	-0.0316	0.002	-0.0061	0.0626	0.0139	-0.0229	0.0319	-0.0105	0.101	-0.0311	0.0361	-0.0214	-0.0599	-0.0299
CN(CCO)CC[C@H](CSc1ccccc1)Nc1ccc(S(=O)(=O)NC(=O)c2ccc(N3CCC([C@@H](O)c4ccccc4-c4ccc(Cl)cc4)CC3)cc2)cc1S(=O)(=O)C(F)(F)F [AZD4320] + C[C@@H](Nc1cc(F)cc(F)c1)c1cc(C(=O)N(C)C)cc2c(=O)cc(N3CCOCC3)oc12 [AZD8186] (first compound max 1 µM, 7x7, partner max 3 µM)	0.0411	0.0484	-0.0096	0.0582	0.0282	0.0652	0.0002	0.0053	-0.018	0.0619	0.0346	0.0005	0.0618	0.0424	-0.0036	0.0328	0.0151	-0.0489	0.0201	0.0176
